# pIC50: −log10 of the molar value.
# Tests used:
# Format in all cases: cell-based
# human TLR7 = biological target: T1, human TLR7 (Homo sapiens, UniProt Q9NYK1); test: TLR7 inhibition reporter assay (HEK-Blue SEAP reporter); details: HEK-Blue cells overexpressing human TLR7; gardiquimod 7.5 μM; 22 hour incubation
# T1 construct: host or cells: HEK-Blue cells
# T1 sequence (Q9NYK1 27-1049): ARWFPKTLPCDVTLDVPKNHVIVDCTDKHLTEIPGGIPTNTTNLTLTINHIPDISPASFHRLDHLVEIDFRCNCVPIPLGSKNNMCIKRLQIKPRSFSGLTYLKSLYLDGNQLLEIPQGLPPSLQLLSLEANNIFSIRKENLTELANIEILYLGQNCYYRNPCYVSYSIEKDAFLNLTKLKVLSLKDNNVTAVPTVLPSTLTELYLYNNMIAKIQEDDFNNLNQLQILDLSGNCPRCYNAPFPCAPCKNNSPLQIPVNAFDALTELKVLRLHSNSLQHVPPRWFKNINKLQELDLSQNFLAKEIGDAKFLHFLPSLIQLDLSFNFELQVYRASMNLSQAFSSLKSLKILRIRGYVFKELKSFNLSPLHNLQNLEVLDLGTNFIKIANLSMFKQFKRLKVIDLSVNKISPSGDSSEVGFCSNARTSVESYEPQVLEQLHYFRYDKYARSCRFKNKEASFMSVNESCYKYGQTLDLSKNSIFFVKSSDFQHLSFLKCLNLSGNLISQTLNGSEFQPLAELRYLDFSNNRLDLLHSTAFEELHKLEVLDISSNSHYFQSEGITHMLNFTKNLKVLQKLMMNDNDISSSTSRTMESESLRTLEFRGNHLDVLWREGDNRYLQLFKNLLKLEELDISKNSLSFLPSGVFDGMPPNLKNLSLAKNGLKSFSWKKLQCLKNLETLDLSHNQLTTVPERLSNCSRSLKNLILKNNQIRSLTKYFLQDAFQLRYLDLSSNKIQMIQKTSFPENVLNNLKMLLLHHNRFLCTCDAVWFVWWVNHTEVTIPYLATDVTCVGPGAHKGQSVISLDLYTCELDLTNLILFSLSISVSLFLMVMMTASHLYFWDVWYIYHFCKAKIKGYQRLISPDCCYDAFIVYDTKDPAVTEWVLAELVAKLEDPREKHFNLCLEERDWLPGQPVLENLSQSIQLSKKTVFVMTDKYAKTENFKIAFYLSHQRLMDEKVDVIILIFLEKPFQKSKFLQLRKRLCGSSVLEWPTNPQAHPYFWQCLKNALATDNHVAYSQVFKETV
# How it was run: (§1)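 Human TLR7/8/9 HEK-Blue reporter lines; dose range 0.05 nM–50 μM; 30 min RT preincubation; stimulus gardiquimod 7.5 μM / R848 15.9 μM / ODN2006 5 nM respectively; 22 h, 37 °C; SEAP detected colorimetrically.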
# human TLR9 = biological target: T2, human TLR9 (Homo sapiens, UniProt Q9NR96); test: TLR9 inhibition reporter assay (HEK-Blue SEAP reporter); details: HEK-Blue cells overexpressing human TLR9; ODN2006 5 nM; 22 hour incubation
# T2 construct: host or cells: HEK-Blue cells
# T2 sequence (Q9NR96 26-1032): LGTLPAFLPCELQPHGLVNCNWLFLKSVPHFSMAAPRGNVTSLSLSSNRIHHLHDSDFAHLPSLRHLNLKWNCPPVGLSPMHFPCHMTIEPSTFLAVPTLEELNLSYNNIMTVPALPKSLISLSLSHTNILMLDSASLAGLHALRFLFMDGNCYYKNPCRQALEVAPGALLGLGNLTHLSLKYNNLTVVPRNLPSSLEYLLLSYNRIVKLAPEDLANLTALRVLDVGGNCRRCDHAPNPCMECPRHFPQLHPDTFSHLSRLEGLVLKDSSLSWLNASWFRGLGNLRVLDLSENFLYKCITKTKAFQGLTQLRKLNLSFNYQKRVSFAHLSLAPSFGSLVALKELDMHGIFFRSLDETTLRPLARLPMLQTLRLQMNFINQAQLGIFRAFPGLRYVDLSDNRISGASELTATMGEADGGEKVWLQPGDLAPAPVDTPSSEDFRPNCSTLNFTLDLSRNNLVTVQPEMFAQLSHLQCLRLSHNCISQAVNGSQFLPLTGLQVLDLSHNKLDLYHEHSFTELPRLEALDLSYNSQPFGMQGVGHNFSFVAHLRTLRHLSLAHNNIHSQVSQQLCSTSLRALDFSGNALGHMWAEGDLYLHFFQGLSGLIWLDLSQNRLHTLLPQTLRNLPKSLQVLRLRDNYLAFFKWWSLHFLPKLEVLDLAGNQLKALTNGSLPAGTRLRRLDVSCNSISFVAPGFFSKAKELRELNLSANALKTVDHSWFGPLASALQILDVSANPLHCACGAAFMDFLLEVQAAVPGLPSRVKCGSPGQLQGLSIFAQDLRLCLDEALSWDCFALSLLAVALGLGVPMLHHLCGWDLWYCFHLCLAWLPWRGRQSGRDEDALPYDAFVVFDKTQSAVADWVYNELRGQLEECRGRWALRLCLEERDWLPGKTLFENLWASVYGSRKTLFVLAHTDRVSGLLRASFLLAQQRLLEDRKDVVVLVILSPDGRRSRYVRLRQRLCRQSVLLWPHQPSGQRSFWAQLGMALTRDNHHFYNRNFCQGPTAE
# How it was run: as §1
# human TLR8 = biological target: T3, human TLR8 (Homo sapiens, UniProt Q9NR97); test: TLR8 inhibition reporter assay (HEK-Blue SEAP reporter); details: HEK-Blue cells overexpressing human TLR8; R848 15.9 μM; 22 hour incubation
# T3 construct: host or cells: HEK-Blue cells
# T3 sequence (Q9NR97 27-1041): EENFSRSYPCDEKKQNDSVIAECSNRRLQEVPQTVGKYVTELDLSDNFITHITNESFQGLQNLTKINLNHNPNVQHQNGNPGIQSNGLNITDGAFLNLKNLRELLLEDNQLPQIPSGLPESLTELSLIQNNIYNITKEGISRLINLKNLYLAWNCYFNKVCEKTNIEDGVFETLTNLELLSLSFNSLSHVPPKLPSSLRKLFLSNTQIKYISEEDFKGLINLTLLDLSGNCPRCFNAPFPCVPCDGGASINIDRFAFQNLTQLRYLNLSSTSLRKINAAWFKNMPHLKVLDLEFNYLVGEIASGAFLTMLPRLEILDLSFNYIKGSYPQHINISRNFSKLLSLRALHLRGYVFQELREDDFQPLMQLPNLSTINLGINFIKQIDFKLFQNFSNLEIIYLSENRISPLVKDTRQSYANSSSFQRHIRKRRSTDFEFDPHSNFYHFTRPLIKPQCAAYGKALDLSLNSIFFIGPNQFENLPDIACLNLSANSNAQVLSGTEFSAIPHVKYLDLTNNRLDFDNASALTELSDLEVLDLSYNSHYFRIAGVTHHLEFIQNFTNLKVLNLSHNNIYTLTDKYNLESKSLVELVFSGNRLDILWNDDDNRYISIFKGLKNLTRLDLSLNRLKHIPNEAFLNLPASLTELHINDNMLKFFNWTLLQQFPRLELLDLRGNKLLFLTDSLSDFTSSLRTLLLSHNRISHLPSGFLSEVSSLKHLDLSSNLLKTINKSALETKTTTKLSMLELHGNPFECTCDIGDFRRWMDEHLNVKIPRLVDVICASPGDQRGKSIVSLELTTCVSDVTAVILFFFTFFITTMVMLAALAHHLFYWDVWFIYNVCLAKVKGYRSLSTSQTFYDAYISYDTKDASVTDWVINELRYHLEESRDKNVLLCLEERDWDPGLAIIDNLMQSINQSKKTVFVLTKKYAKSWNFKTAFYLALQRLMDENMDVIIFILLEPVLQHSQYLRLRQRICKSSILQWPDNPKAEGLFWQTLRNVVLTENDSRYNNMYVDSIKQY
# How it was run: as §1
SMILES,pIC50 (human TLR7),pIC50 (human TLR9),pIC50 (human TLR8)
"CCc1c(-c2ccc(OC)c(OC)c2)[nH]c2ccc(N3CCN(C4CCN(CC(C)C)CC4)CC3)cc12 [Example 177, 2-(3,4-dimethoxyphenyl)-3-ethyl-5-(4-(1-isobutylpiperidin-4-yl)piperazin-1-yl)-1H-indole]",6.78,5.81,7.96
"CCc1c(-c2ccc(OC)c(OC)c2)[nH]c2ccc(N3CCC4(CCN(C)CC4)CC3)cc12 [Example 181, 3-(2-(3,4-dimethoxyphenyl)-3-ethyl-1H-indol-5-yl)-9-methyl-3,9-diazaspiro[5.5]undecane]",7.27,6.29,7.13
"CCc1c(-c2ccc(OC)c(OC)c2)[nH]c2ccc(N3CCC4(CC3)CCN(C(C)C)CC4)cc12 [Example 183, 3-(2-(3,4-dimethoxyphenyl)-3-ethyl-1H-indol-5-yl)-9-isopropyl-3,9-diazaspiro[5.5]undecane]",7.02,6.17,7.23
"CCc1c(-c2ccnc3[nH]ncc23)[nH]c2ccc(N3CCC(OC4CCN(C(C)C)CC4)CC3)cc12 [Example 185, 4-(3-ethyl-5-(4-((1-isopropylpiperidin-4-yl)oxy)piperidin-1-yl)-1H-indol-2-yl)-1H-pyrazolo[3,4-b]pyridine]",4.82,5.85,4.73
"CCc1c(-c2ccc(OC)c(OC)c2)[nH]c2cc(C)c(N3CCC4(CC3)CCN(C(C)C)CC4)cc12 [Example 186, 3-(2-(3,4-dimethoxyphenyl)-3-ethyl-6-methyl-1H-indol-5-yl)-9-isopropyl-3,9-diazaspiro[5.5]undecane]",5.92,5.54,5.80
"CCN1CCC(OC2CCN(c3ccc4[nH]c(-c5ccc(OC)c(OC)c5)c(C(C)C)c4c3)CC2)CC1 [Example 190, 2-(3,4-dimethoxyphenyl)-5-(4-((1-ethylpiperidin-4-yl)oxy)piperidin-1-yl)-3-isopropyl-1H-indole]",7.48,6.18,7.46

# More lines, now with the values ahead:
pIC50 (human TLR7),pIC50 (human TLR9),pIC50 (human TLR8),SMILES
7.08,5.84,6.78,"COc1ccc(-c2[nH]c3ccc(N4CCC(OC5CCN(C)CC5)CC4)cc3c2C(C)C)cc1OC [Example 187, 2-(3,4-dimethoxyphenyl)-3-isopropyl-5-(4-((1-methylpiperidin-4-yl)oxy)piperidin-1-yl)-1H-indole]"
7.06,6.08,7.18,"CCc1c(-c2ccc(OC)c(OC)c2)[nH]c2ccc(N3CCC(OC4CCN(C(C)C)CC4)CC3)cc12 [Example 191, 2-(3,4-dimethoxyphenyl)-3-ethyl-5-(4-((1-isopropylpiperidin-4-yl)oxy)piperidin-1-yl)-1H-indole]"
7.44,6.49,8.11,"COc1ccc(-c2[nH]c3ccc(N4CCC(NC5CCN(C(C)C)CC5)CC4)cc3c2C(C)C)cc1OC [Example 192, 1-(2-(3,4-dimethoxyphenyl)-3-isopropyl-1H-indol-5-yl)-N-(1-isopropylpiperidin-4-yl)piperidin-4-amine]"

# Reference: patent US11306092B2, “Amino indole compounds useful as TLR inhibitors” (BRISTOL-MYERS SQUIBB COMPANY, priority 2017, dated 2022)
